Where “and” joins values, the source holds several entries; their conditions need not be identical. Identical values can stand only once.
Test: Penetration depth of topically applied antibiotics into corneal tissue, by excimer laser ablation and laser-induced fluorescence spectroscopy with PLS model
Format: in vitro ADME
Conditions: for Antibiotic Penetration Depth (Mean): rinsed, mean of cases (SD in text)
Method: The second set of experiments was performed on fresh rabbit corneas. All experiments were performed in compliance with the Association for Research in Vision and Ophthalmology (ARVO) Statement on the Use of Animals in Research. Approval was obtained from the University of California, Irvine, Institutional Care and Use Committee (IACUC) and the IACUC guidelines regarding animal experimentation were followed. New Zealand White rabbit heads were obtained from an abattoir and kept at 4° C. until eyes were enucleated within 7-hours of death to maximize preservation of the corneal epithelium. The globes were stored in a moist chamber at 4° C. for approximately 4 hours until time of use.
The main component, mounted on or above an optical table 21, is the Nidek EC-5000 laser system 22 (Model EC-5000, Nidek Technologies, Inc., Japan) operating at 193 nm. The average laser energy is about 16.4 mJ/pulse measured over a period of 10-s while pulsing at 4 Hz. The eye-fixation LED and the aiming He—Ne laser within the laser system 22 are disabled to avoid their interference with the measured corneal autofluorescence.
During the experiments, the laser 22 is operated to emit a collimated laser beam 23 in the direction of a cornea 24. The laser 22 is operated in its manual mode to pulse the beam 23 at 4 Hz and generate a rectangular spot size of about 2×4.5-mm. The BNC cable connecting the control circuitry of the EC-5000 to the OEM […] excimer laser (Lambda Physik, Fort Lauderdale, Fla.) is tapped using a BNC T-adapter. […]
Each pulse of radiation emitted from the laser 22 ablates a thin layer of the cornea 24. The laser-induced fluorescence (LIF) 32 produced by the ablated cornea 24 is reflected by a 2″ off-axis parabolic mirror 34 (Al, SiO-protected Model A8037-331, Janos Technology Inc., Townshend, Vt.) mounted on a mirror holder 36 that is, in turn, mounted on an XYZ translator 38. […] With each trigger pulse, the spectrograph 26 measures and auto-saves the fluorescence spectrum generated by the corresponding laser pulse.
The cornea 24 was placed epithelium-up (with the exception of the cornea in Example 4) on a circular aluminum tray 42. […] The laser 22 was set to ablate the cornea at 4-Hz for a period of about 7-minutes and the fluorescence spectrum generated by each pulse was measured and saved. […]
In each set of experiments, the measured fluorescence spectra are corrected for dark current and background light, and each spectrum is smoothed using a 5-point moving average window. The series of spectra measured from a given cornea are normalized by the peak value of the first spectrum in the series (i.e. the spectrum of the corneal surface). […]

Row | Structure (SMILES) | Antibiotic Penetration Depth (individual cases) (enucleated rabbit globes, topical 4 drops for 10 min, then 3 drops for 5 min, rinsed with lactated Ringer's, single cornea per case) | Antibiotic Penetration Depth (Mean) (enucleated rabbit globes, topical 4 drops for 10 min, then 3 drops for 5 min) [μm] | Antibiotic Penetration Depth (Mean) (enucleated rabbit globes, topical 4 drops for 10 min, then 3 drops for 5 min, listed as ciprofloxacin) [μm] | Penetration of the corneal epithelium (in words)
1 | O=C(O)c1cn(C2CC2)c2cc(N3CCNCC3)c(F)cc2c1=O [Ciprofloxacin, ciprofloxacin] | 0.6 μm and 1.5 μm and 0.9 μm | 1.0 | 1.0±0.5 | –
2 | COc1c(N2CCNC(C)C2)c(F)cc2c(=O)c(C(=O)O)cn(C3CC3)c12 (stereo not shown) [Gatifloxacin, gatifloxacin] | – | – | – | penetrate the epithelium significantly more than ciprofloxacin
